The text below walks through data of patent US8143419B2, “Trisubstituted 1,2,4-triazoles” (Janssen Pharmaceutica N. V., priority 2006, dated 2012).

The target of data set [1] is T1, hα7-wt nAChR (Homo sapiens, UniProt P36544).
T1 construct: expressed in transfected cells
Briefly: Ca2+ flux imaging (FDSS) (Protocol B), PAM activity with choline as agonist. It counts as cell-based. To be noted: for EC50: "<5" = no top plateau at maximal concentration; for Emax: read-out: % efficacy. Put shortly: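 Cells stably expressing human wild-type α7 nAChR, loaded with fluo-4AM (2 μM final) up to 120 min in HBSS/10 mM HEPES/5 mM CaCl2/0.1% BSA with 5 mM probenecid. Compounds (0.01–30 μM) added up to 10 min before 100 μM choline; peak fluorescence read on FDSS, potentiation expressed relative to choline-alone response (100%).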

T1 sequence (P36544 23-502): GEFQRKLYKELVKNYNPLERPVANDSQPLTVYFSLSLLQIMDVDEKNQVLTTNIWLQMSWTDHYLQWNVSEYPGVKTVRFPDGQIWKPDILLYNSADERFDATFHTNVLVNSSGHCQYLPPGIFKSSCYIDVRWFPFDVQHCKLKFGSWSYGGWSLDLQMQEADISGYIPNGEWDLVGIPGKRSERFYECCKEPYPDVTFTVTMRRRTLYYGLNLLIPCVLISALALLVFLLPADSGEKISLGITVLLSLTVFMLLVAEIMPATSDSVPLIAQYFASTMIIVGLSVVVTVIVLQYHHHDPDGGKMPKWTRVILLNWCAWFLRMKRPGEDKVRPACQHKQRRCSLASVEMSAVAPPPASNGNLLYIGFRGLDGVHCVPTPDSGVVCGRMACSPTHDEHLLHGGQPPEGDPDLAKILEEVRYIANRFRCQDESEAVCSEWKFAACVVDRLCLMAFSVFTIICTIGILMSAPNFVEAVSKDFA

One may read the EC50 as the concentration that produces a half-maximal response. By melting point is commonly meant the temperature, or range, at which the solid turns liquid. `CCNc1cc(-c2nc(Nc3ccc4c(c3)OC(F)(F)O4)nn2CC(C)O)ccn1` (stereo not shown) [Compound 199] yielded a melting point of 167.9 °C. Also, the EC50 in data set [1] is 2510 nM.
Molecule `CNC(=O)Cn1nc(Nc2ccc3c(c2)OC(F)(F)O3)nc1-c1ccnc(C)c1` [Compound 200] registered a melting point of 227 °C. Further, the concentration for a half-maximal effect (EC50) in data set [1] is 2000 nM.
`CCNC(=O)Cn1nc(Nc2ccc3c(c2)OC(F)(F)O3)nc1-c1ccnc(C)c1F` [Compound 201]: the melting point stood at 223.5 °C. Also, in data set [1], the EC50 is 1000 nM.
On the same counts, the results for `CNC(=O)Cn1nc(Nc2ccc3c(c2)OC(F)(F)O3)nc1-c1cc(C)ncc1Cl` [Compound 202] are 243 °C and 3160 nM.
`CNC(=O)Cn1nc(Nc2ccc3c(c2)OC(F)(F)O3)nc1-c1cc(Cl)ncc1Cl` [Compound 203] displayed a melting point of 231.3 °C. For the same molecule, the EC50 in data set [1] is 3160 nM.
As to `CCNC(=O)Cn1nc(Nc2ccc3c(c2)OC(F)(F)O3)nc1-c1ccnc2c1CCC2` [Compound 204], the melting point was determined as 260.1 °C. For the same molecule, the concentration for a half-maximal effect (EC50) in data set [1] is 631 nM.
Regarding `Cc1cc(-c2nc(Nc3ccc4c(c3)OC(F)(F)O4)nn2CC(=O)NC2CCC2)ccn1` [Compound 205], the melting point amounted to 224.8 °C. For the same molecule, the EC50 in data set [1] is 794 nM.
`Cc1cc(-c2nc(Nc3ccc4c(c3)OC(F)(F)O4)nn2CC(=O)NC2CCCC2)ccn1` [Compound 206] displayed a melting point of 229.1 °C. Also, the EC50 in data set [1] is 631 nM.
On to `Cc1cc(-c2nc(Nc3ccc4c(c3)OC(F)(F)O4)nn2CC(=O)NC2CCCC2O)ccn1` (stereo not shown) [Compound 207], for which the melting point was 219.7 °C. In data set [1], the EC50 is > 10000 nM and the Emax turned out to be 811%.
The matching figures for `Cc1cc(-c2nc(Nc3ccc4c(c3)OC(F)(F)O4)nn2CC(=O)NC2CCOC2)ccn1` (stereo not shown) [Compound 208]: 253.8 °C, 5010 nM and 909%.
Molecule `Cc1cc(-c2nc(Nc3ccc4c(c3)OC(F)(F)O4)nn2CCC(=O)N(C)C)cc(C)n1` [Compound 209] came in with a melting point of 182.2 °C. Besides, the half-maximal effective concentration (EC50) in data set [1] was 398 nM.
Take `CN(C)C(=O)CCn1nc(Nc2ccc3c(c2)OC(F)(F)O3)nc1-c1ccncc1F` [Compound 210]: the melting point came to 201.5 °C. In data set [1], the EC50 was 316 nM.
On the same counts, the results for `CNC(=O)Cn1nc(Nc2ccnc(C(F)(F)F)c2)nc1-c1ccc2c(c1)OCCO2` [Compound 212] are 214.2 to 223.5 °C and 1260 nM.
